In patent US4929633A, “Actinonin derivatives having physiological activities” (Zaidan Hojin Biseibutsu Kagaku Kenkyu Kai, priority 1987, dated 1990):
pIC50: −log10 of the molar value. Entries after “also recorded” stand apart in the source; their conditions may differ.

What was measured:
peptidases = settings: Journal of Antibiotics 38, 1629-1630 (1985); cited from earlier work
[1] = tested on: enkephalin-degrading enzymes; settings: Kokai No. 4228/87; cited from earlier work
[2] = U.S. Pat. No. 3,240,787; cited from earlier work
[3] = target: T1, post-proline-cleaving enzyme (PPCE) (Sus scrofa, UniProt P23687); assay: PPCE-inhibitory activity (substrate Z-Gly-Pro-PNA); type: biochemical, swine; settings: for pIC50: 37° C., 15 minutes, PPCE from swine kidney
T1 construct: PPCE used was an enzyme preparation made from swine kidney; from tissue; host or cells: swine kidney, ammonium sulfate fractionation and DEAE-Sephadex chromatography
Method: The enzyme-inhibitory activities of these test compounds against PPCE were estimated by adding a substrate compound of the formula [drawing 18] namely, N-benzyloxycarbonyl-glycyl-prolyl-p-nitroanilide (Z-Gly-Pro-PNA) to a solution of an enzyme, then adding to the solution each test compound having the enzyme-inhibiting activity to be assayed, reacting the substrate, the enzyme and the test compounds with each other at 37° C. for 15 minutes and then measuring the consumed amount of the substrate in terms of the determined reduction in the absorbency of a ultraviolet ray of a given wave length which transmitted the reaction solution where the substrate compounds, the enzyme and the enzyme-inhibiting test compound have been reacted with each other. In these tests, PPCE used was an enzyme preparation made from swine kidney and prior to its use, was purified by fractionation with ammonium sulfate and by subsequent chromatography on DEAE-Sephadex agent.

[4] = Kokai No. 15840/86; U.S. Pat. No. 4,663,342; cited from earlier work
[5] = Kokai No. 4228/87; cited from earlier work
[6] = target: angiotension-conversion enzyme (ACE) (Homo sapiens, UniProt P12821); assay: ACE-inhibitory activity (method of Analytical Biochemistry 84, 361 (1978)); type: biochemical
Excerpt: The enzyme-inhibitory activity of the test compounds against ACE were estimated in accordance with a method as described in the literature "Analytical Biochemistry", 84, 361 (1978).

[7] = tested on: experimental amnesia in mice; assay: step-down type passive avoidance response test, cycloheximide-induced amnesia in mice; type: in vivo, mouse (male ddy-mice); settings: for Residence time: 24 h, max 300 s, control mice 220 ± 37
Method: These experiments were performed using male ddy-mice having an average body weight of 25 g as the test animal. A platform in cubic form having a length of 4 cm for each side of the cube was arranged in a cage on the floor of the cage. Each mouse was placed on the platform. An electric current-feeding device had been provided on the floor area of the cage which positioned outside the platform. It was so arranged that whenever the mouse descended onto the floor from the platform, a 60 V electric current was caused to pass through the floor for 0.5 second to shock the mouse so as to have the mouse learn the shocking passage of electric current. Immediately after the mouse's learning, the mouse was subcutaneously administered with 30 mg/kg of cycloheximide so as to induce experimental amnesia. Each test compound had been intraperitoneally administered to the mouse at a time of 15 minutes before the mouse's learing was commenced. Upon an elapsed time of 24 hours after the completion of the mouse's learning for the electric current passage, the mouse treated as above was again placed on the same platform in the same cage under the same conditions, and the residence time of the mouse staying on the platform was measured under a pre-requisit that a maximum residence time as determined was set to be up to 300 seconds.
The results of the experiments for the cycloheximide-induced amnestic mice as treated by the previous intraperitoneal administration of the test compound of this invention are summarized in Table 2 below.

angiotension-conversion enzyme (ACE), sequence (P12821 30-1306, species assumed): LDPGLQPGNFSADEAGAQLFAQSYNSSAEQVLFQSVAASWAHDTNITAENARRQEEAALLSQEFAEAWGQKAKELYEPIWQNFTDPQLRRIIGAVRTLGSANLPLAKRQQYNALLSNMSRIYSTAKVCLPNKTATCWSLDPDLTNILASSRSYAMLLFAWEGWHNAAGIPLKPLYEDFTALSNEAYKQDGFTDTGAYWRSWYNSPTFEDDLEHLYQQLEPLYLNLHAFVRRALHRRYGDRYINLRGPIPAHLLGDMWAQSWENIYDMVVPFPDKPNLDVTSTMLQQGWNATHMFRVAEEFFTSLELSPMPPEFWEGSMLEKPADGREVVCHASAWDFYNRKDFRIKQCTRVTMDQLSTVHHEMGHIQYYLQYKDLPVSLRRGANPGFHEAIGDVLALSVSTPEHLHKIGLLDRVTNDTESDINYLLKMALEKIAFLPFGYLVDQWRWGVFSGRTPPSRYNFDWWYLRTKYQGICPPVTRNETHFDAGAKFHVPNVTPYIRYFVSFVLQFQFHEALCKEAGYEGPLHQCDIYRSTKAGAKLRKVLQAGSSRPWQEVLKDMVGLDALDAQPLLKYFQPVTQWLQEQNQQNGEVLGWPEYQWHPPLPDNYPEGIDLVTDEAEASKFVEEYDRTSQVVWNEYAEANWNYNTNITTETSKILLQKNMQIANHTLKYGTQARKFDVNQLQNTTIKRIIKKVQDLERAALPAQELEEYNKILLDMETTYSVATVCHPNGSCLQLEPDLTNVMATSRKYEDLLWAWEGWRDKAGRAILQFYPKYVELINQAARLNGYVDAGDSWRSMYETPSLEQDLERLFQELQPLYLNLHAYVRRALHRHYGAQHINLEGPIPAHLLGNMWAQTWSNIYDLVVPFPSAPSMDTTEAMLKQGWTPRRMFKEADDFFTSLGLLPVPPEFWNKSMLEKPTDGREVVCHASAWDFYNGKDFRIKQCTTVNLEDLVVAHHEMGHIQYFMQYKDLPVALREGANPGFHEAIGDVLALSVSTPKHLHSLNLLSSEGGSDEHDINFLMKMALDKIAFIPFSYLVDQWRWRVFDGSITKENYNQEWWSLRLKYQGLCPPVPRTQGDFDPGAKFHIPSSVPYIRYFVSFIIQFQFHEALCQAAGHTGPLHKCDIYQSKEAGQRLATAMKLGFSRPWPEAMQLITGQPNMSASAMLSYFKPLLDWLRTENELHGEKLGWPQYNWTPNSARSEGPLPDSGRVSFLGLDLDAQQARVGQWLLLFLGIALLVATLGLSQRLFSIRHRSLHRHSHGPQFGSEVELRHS
T1 sequence (P23687 whole entry): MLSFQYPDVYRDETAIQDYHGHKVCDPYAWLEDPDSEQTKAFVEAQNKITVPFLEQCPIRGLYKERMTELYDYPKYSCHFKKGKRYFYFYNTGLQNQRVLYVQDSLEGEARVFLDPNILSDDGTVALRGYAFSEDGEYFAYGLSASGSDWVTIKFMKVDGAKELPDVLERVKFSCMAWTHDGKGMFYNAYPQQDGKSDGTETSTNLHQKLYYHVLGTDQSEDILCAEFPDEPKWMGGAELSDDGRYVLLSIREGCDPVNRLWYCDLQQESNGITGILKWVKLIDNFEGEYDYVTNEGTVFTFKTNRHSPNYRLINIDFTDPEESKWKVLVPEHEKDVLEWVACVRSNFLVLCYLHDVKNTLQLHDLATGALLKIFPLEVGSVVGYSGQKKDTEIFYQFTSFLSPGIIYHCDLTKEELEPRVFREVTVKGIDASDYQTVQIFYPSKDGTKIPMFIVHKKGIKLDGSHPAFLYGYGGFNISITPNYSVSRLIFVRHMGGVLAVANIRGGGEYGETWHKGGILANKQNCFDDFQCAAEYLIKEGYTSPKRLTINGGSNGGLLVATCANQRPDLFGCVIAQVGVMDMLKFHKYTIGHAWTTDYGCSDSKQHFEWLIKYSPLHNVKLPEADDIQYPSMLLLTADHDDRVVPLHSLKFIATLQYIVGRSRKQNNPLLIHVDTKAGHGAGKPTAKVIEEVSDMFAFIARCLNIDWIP

SMILES | pIC50 [3] | pIC50 [6] | PPCE-inhibitory activity (in words) [3] | ACE-inhibitory activity (in words) [6] | other results
CCCCC[C@H](CC(=O)NO)C(=O)N[C@H](C(=O)N1CCC[C@H]1CO)C(C)C [Actinonin] | 4.11 | 4.42 | medium enzyme-inhibitory activity; also recorded: medium enzyme-inhibitory activities | medium enzyme-inhibitory activity; also recorded: medium enzyme-inhibitory activities | inhibition of peptidases (in words) (peptidases): inhibit a wide variety of peptidases; inhibition of the enkephalin-degrading enzymes (in words) [1]: can inhibit the enkephalin-degrading enzymes; antibacterial activity (in words) [2]: antibacterial activity; immunopotentiating activity (in words) [4]: immunopotentiating activity; anodyne activity (in words) [5]: anodyne activity
CCCCC[C@H](CC(=O)O)C(=O)N[C@H](C(=O)N1CCC[C@H]1CO)C(C)C [Compound of the Formula (III), (2S)-2-pentylsuccinyl-L-valyl-L-prolinol] | < 3.87 | < 3.87 |  |  | 
C[C@@H]1C[C@@H]([C@H](O)CC2CC(=O)NC(=O)C2)C(=O)[C@@H](C)C1 [cycloheximide] |  |  |  |  | Residence time ([7]; cycloheximide alone (comparative), 30 mg/kg s.c. after learning, n=10): 114 ± 26 s

Second part, led by results:

pIC50 [3] | pIC50 [6] | SMILES | PPCE-inhibitory activity (in words) [3] | ACE-inhibitory activity (in words) [6] | other results
7.08 | < 3.87 | CCCCC[C@H](CC(=O)O)C(=O)N[C@H](C(=O)N1CCC[C@H]1C=O)C(C)C [Example 1, (2S)-2-pentylsuccinyl-L-valyl-L-prolinal] |  |  | 
7.26 | < 3.90 | CCCCC[C@H](CC(=O)OCC)C(=O)N[C@H](C(=O)N1CCC[C@H]1C=O)C(C)C [Example 2, (2S)-3-Ethoxycarbonyl-2-pentylpropionyl-L-valyl-L-prolinal] | strong PPCE-inhibitory activity | no enzyme-inhibitory activity against ACE | Residence time ([7]; 3 mg/kg i.p. 15 min before learning, cycloheximide 30 mg/kg s.c., n=9, cycloheximide alone 114 ± 26): 188 ± 35 s; Residence time ([7]; 10 mg/kg i.p. 15 min before learning, cycloheximide 30 mg/kg s.c., n=9, cycloheximide alone 114 ± 26): 180 ± 26 s; therapeutic effects to treat the experimental amnesia (in words) ([7]; cycloheximide-induced amnesia, mice): marked therapeutic effects
